Measurements from ChEMBL document CHEMBL5260859, “Discovery and structure-activity relationship study of 2-piperazinyl-benzothiazole derivatives as potent and selective PPARδ agonists” (Bioorg Med Chem, 2023).
pEC50: −log10 of the molar value.

Experiments:
Format in all cases: cell-based
[1] = molecular target: T1, Peroxisome proliferator-activated receptor delta (Homo sapiens, UniProt Q03181); experiment: Agonist activity at Gal4-fused human PPAR-delta ligand binding domain expressed in CHO-K1 cells assessed as receptor transactivation incubated for 24 to 48 hrs by luciferase reporter gene assay
T1 sequence (Q03181 whole entry): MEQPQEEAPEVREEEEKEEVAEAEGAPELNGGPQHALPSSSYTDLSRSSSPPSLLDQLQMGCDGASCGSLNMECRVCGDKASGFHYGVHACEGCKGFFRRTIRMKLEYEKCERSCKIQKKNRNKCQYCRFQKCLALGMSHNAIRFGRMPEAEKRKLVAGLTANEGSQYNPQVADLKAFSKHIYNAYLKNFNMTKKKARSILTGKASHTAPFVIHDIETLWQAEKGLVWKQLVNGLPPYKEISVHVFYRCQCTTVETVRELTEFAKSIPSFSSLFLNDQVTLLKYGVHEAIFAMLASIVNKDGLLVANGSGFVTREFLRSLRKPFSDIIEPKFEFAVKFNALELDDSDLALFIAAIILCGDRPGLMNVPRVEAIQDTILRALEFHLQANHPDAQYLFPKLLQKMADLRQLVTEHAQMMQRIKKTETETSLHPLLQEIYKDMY

Mus musculus = species on record: Mus musculus; experiment: Selectivity ratio of EC50 for agonist activity at Gal4-fused mouse PPAR-alpha ligand binding domain expressed in CHO-K1 cells to EC50 for agonist activity at Gal4-fused mouse PPAR-delta ligand binding domain expressed in CHO-K1 cells
[2] = molecular target: T2, Peroxisome proliferator-activated receptor gamma (Mus musculus, UniProt P37238); experiment: Agonist activity at Gal4-fused mouse PPAR-gamma ligand binding domain expressed in CHO-K1 cells assessed as receptor transactivation incubated for 24 to 48 hrs by luciferase reporter gene assay
T2 sequence (P37238 whole entry): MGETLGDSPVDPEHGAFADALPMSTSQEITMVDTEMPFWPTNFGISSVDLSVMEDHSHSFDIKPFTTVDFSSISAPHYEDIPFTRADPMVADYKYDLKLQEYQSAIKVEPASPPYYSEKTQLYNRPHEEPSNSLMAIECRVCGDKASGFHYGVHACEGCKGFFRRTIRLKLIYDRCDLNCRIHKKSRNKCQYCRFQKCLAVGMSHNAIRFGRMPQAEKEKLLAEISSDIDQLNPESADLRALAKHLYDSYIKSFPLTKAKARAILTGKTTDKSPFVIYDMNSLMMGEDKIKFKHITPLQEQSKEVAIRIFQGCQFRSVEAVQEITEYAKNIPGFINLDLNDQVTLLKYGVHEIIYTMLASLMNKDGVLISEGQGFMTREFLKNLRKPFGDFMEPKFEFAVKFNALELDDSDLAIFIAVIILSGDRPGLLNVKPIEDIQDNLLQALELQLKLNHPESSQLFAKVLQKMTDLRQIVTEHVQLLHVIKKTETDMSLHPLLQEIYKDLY

[3] = molecular target: T3, Peroxisome proliferator-activated receptor delta (Mus musculus) (UniProt P35396); experiment: Agonist activity at Gal4-fused mouse PPAR-delta ligand binding domain expressed in CHO-K1 cells assessed as receptor transactivation incubated for 24 to 48 hrs by luciferase reporter gene assay relative to control; conditions: time lower 24.0 hrs, time upper […]
T3 sequence (whole entry): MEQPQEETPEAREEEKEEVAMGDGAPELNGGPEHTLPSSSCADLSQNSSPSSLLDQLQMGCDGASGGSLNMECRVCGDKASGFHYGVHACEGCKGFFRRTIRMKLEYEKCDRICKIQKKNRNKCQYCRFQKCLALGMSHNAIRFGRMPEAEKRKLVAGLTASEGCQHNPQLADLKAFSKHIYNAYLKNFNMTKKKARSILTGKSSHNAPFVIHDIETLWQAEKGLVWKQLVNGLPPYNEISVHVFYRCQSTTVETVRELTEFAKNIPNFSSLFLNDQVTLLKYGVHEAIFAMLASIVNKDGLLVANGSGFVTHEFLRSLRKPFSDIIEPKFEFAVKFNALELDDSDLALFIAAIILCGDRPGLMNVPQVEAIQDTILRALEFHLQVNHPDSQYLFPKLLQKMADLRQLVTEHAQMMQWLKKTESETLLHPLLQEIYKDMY

[4] = molecular target: T4, Peroxisome proliferator-activated receptor alpha (Homo sapiens, UniProt Q07869); experiment: Agonist activity at Gal4-fused human PPAR-alpha ligand binding domain expressed in CHO-K1 cells assessed as receptor transactivation incubated for 24 to 48 hrs by luciferase reporter gene assay
T4 sequence (Q07869 whole entry): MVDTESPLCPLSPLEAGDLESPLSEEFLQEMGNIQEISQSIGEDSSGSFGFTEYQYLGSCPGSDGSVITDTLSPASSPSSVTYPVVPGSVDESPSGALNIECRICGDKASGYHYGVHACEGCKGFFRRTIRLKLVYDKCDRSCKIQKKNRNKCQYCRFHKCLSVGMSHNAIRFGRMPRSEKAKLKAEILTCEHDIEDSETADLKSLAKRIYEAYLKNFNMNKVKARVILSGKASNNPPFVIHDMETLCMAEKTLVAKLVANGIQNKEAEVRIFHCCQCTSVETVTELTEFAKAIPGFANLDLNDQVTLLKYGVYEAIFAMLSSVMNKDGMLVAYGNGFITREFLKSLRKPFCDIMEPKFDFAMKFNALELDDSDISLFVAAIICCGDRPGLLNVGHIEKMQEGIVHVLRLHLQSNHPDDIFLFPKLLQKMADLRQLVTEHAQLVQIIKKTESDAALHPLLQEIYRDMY

Compound	pEC50 [1]	Ratio EC50 (Mus musculus)	pEC50 [2]	Emax [3] [%]	pEC50 [4]
Cc1cc(CC(=O)O)cc(CN2CCN(c3nc4ccc(C(F)(F)F)cc4s3)[C@H](C)C2)c1	8.21	152	5.74	20.8	5.80
Cc1cc(CC(=O)O)cc(CN2CCN(c3nc4ccc(C(F)(F)F)cc4s3)[C@@H](C)C2)c1	8.00	100	5.57	20.4	5.74
